Measured values from patent publication US20250340574A1, “MODULATORS OF CYSTIC FIBROSIS TRANSMEMBRANE CONDUCTANCE REGULATOR” (Vertex Pharmaceuticals Incorporated, priority 2022, published 2025).
Read-outs that look alike come from different tables or passages of the source.

Biological target: T1, CFTR (F508del/MF-HBE cells) (Homo sapiens, UniProt P13569, DEL508-508)
T1 construct: human bronchial epithelial (HBE) cells derived from CF subjects heterozygous for F508del and a minimal function CFTR mutation (F508del/MF-HBE); endogenous in cells; host or cells: Primary human bronchial epithelial cells from CF subjects (F508del/MF genotype), differentiated at an air-liquid interface
T1 sequence (P13569 with tags, fused parts or gaps DEL508-508): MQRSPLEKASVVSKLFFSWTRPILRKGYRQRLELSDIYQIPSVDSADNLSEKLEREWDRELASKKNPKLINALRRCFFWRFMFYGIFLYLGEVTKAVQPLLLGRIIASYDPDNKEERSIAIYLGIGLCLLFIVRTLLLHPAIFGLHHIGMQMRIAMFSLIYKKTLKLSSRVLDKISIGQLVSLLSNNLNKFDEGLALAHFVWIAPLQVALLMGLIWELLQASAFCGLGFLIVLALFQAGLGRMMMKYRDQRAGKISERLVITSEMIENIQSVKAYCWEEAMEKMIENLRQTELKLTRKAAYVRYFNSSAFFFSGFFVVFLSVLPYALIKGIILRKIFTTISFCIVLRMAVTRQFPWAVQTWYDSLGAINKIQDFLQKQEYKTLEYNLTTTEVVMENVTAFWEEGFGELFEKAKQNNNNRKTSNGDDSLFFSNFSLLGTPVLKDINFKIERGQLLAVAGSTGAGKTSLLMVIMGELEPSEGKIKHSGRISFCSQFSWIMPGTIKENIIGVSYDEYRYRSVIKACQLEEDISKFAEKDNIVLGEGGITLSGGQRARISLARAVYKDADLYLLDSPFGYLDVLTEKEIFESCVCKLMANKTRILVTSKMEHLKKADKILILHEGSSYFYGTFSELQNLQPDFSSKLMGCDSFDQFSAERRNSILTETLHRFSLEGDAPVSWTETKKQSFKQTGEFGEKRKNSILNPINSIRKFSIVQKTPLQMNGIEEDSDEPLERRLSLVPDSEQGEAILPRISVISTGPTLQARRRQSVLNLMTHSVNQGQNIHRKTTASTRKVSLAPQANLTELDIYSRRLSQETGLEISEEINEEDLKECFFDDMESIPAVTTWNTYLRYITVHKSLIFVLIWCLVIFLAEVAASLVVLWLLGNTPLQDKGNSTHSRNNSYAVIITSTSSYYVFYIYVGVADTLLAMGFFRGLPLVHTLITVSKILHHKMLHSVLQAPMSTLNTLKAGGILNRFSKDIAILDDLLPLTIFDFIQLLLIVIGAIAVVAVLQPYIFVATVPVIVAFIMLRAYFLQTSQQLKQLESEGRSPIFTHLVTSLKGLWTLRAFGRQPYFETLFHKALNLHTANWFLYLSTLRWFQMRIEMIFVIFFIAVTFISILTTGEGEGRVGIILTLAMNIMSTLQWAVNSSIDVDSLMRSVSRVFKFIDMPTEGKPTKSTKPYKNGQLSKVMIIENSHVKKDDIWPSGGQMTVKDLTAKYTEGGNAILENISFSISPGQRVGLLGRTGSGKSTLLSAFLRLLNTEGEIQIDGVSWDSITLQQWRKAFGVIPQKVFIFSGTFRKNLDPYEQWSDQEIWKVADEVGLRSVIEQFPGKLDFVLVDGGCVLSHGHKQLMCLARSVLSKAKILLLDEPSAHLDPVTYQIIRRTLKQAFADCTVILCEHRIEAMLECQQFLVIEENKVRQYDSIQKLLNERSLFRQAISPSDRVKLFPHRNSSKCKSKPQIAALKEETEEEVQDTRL
Assay: Ussing chamber assay of CFTR-mediated short-circuit currents, Assay C (0.026 μM to 25 μM, 6 concentrations)
Assay type: cell-based
Details: with 33 nM potentiator and 18 μM Tezacaftor, 20% human serum; for Emax: read-out: C Max activity (%)
Protocol: Ussing chamber experiments were performed using human bronchial epithelial (HBE) cells derived from CF subjects heterozygous for F508del and a minimal function CFTR mutation (F508del/MF-HBE) and cultured as previously described (Neuberger T, Burton B, Clark H, Van Goor F Methods Mol Biol 2011:741:39-54). After four days the apical media was removed, and the cells were grown at an air liquid interface for >14 days prior to use.
To isolate the CFTR-mediated short-circuit (ISC) current, F508del/MF-HBE grown on Costar® Snapwell™ cell culture inserts were mounted in an Ussing chamber and the transepithelial ISC was measured under voltage-clamp recording conditions (Vhold=0 mV) at 37° C. The basolateral solution contained (in mM) 145 NaCl, 0.83 K2HPO4, 3.3 KH2PO4, 1.2 MgCl2, 1.2 CaCl2, 10 Glucose, 10 HEPES (pH adjusted to 7.4 with NaOH) and the apical solution contained (in mM) 145 NaGluconate, 1.2 MgCl2, 1.2 CaCl2, 10 glucose, 10 HEPES (pH adjusted to 7.4 with NaOH) and 30 μM amiloride to block the epithelial sodium channel. Forskolin (20 μM) was added to the apical surface to activate CFTR, followed by apical addition of a CFTR inhibitor cocktail consisting of BPO, GlyH-101, and CFTR inhibitor 172 (each at 20 μM final assay concentration) to specifically isolate CFTR currents. The CFTR-mediated ISC (μA/cm^2) for each condition was determined from the peak forskolin response to the steady-state current following inhibition.
The activity of the CFTR corrector compounds on the CFTR-mediated ISC was determined in Ussing chamber studies as described above. The F508del/MF-HBE cell cultures were either incubated with the corrector compounds at a range of concentrations in combination with 33 nM (6R,12R)-17-amino-12-methyl-6,15-bis(trifluoromethyl)-13,19-dioxa-3,4,18-triazatricyclo[12.3.1.12,5]nonadeca-1(18),2,4,14,16-pentaen-6-ol and 18 μM Tezacaftor or were incubated with the corrector compounds at a single fixed concentration of 1 μM in combination with 44 nM (6R,12R)-17-amino-12-methyl-6,15-bis(trifluoromethyl)-13,19-dioxa-3,4,18-triazatricyclo[12.3.1.12,5]nonadeca-1(18),2,4,14,16-pentaen-6-ol and 18 μM Tezacaftor for 18-24 hours at 37° C. and in the presence of 20% human serum. The concentration of corrector compounds with 44 nM or 33 nM (6R,12R)-17-amino-12-methyl-6,15-bis(trifluoromethyl)-13,19-dioxa-3,4,18-triazatricyclo[12.3.1.12,5]nonadeca-1(18),2,4,14,16-pentaen-6-ol and 18 μM Tezacaftor during the 18-24 hours incubations was kept constant throughout the Ussing chamber measurement of the CFTR-mediated ISC to ensure compounds were present throughout the entire experiment. The efficacy and potency of the putative F508del correctors was compared to that of the known Vertex corrector, (14S)-8-[3-(2-{Dispiro[2.0.2.1]heptan-7-yl}ethoxy)-1H-pyrazol-1-yl]-12,12-dimethyl-2λ^6-thia-3,9,11,18,23-pentaazatetracyclo[17.3.1.111,14.05,10]tetracosa-1(22),5,7,9,19(23),20-hexaene-2,2,4-trione, in combination with 18 μM Tezacaftor and 1 μM Ivacaftor.
• Assay A: 0.1 μM to 25 μM, 6 concentrations • Assay B: 0.00001 μM to 25 μM, 12 concentrations • Assay C: 0.026 μM to 25 μM, 6 concentrations • Assay D: Activity at single concentration of 1 μM

Structure (SMILES) | Emax (18-24 hours) | EC50 | Emax
Cc1cccc(C)c1-c1cc2nc(n1)NS(=O)(=O)c1cccc(c1)C(=O)N(Cc1ncc3oc(C4CC4)cc3n1)[C@H](CC1(C)CC1)CO2 [Compound I-199] | > 60% | 3000 to 30000 nM | 
Cc1cccc(CC(C)(C)C)c1-c1nc2nc(c1C)OC[C@@H](CC(C)(C)C)N(Cc1cnc3oc(C(C)(C)C)cc3n1)C(=O)c1cccc(c1)S(=O)(=O)N2 (atropisomer, axis not shown) [Compound I-245] | > 60% | < 1000 nM | 
Cc1cccc(C)c1-c1cc2nc(n1)NS(=O)(=O)c1cccc(c1)C(=O)N(Cc1cnc3oc(C(C)CO)cc3n1)[C@H](CC1(C)CC1)CO2 (stereo partly shown) [Compound I-256] | > 60% | 1000 to 3000 nM | 
Cc1cccc(OC(C)C)c1-c1nc2nc(c1C)OC[C@@H](CC(C)(C)C)N(Cc1cnc3oc(C(C)(C)C)cc3n1)C(=O)c1cccc(c1)S(=O)(=O)N2 (atropisomer, axis not shown) [Compound I-249] | > 60% | 1000 to 3000 nM | 
Cc1cccc(C)c1-c1cc2nc(n1)NS(=O)(=O)c1cccc(c1)C(=O)N(Cc1ncc3oc(C4CC4)cc3n1)[C@H](CC13CC(C1)C3)CO2 [Compound I-209] | > 60% | 1000 to 3000 nM | 
Cc1cccc(CC2CCCCC2)c1-c1nc2nc(c1C)OC[C@@H](CC(C)(C)C)N(Cc1cnc3cc(C(C)C)n(C)c3n1)C(=O)c1cccc(c1)S(=O)(=O)N2 (atropisomer, axis not shown) [Compound I-178] | > 60% | < 1000 nM | 
Cc1cccc(CC(C)C)c1-c1nc2nc(c1C)OC[C@@H](CC13CC(C1)C3)N(Cc1cnc3oc(C(C)(C)C)cc3n1)C(=O)c1cccc(c1)S(=O)(=O)N2 [Compound I-247] | > 60% | < 1000 nM | 

Further lines, results first:

Emax (18-24 hours) | EC50 | Emax | Structure (SMILES)
 | 3000 to 30000 nM | > 60% | Cc1cccc(C)c1-c1cc2nc(n1)NS(=O)(=O)c1cccc(c1)C(=O)N(Cc1cnc3oc([C@H](C)CO)cc3n1)[C@H](CC1(C)CC1)CO2 [IV-52, (11R)-6-(2,6-Dimethylphenyl)-12-[[6-[(1R)-2-hydroxy-1-methyl-ethyl]furo[2,3-b]pyrazin-2-yl]methyl]-11-[(1-methylcyclopropyl)methyl]-2,2-dioxo-9-oxa-2λ^6-thia-3,5,12,19-tetrazatricyclo[12.3.1.14,8]nonadeca-1(18),4(19),5,7,14,16-hexaen-13-one]
 | < 1000 nM | > 60% | Cc1cccc(C)c1-c1cc2nc(n1)NS(=O)(=O)c1cccc(c1)C(=O)N(Cc1cnc3cc(C(C)(C)C)n(C)c3n1)[C@@H](C(C1CCC1)C1CCC1)CO2 [IV-50]
 | 1000 to 3000 nM | > 60% | Cc1cccc(C)c1-c1cc2nc(n1)NS(=O)(=O)c1cccc(c1)C(=O)N(Cc1cnc3oc(C4CC4)cc3n1)[C@H]([C@H](C)OC(C)(C)C)CO2 (stereo in doubt) [IV-80]
 | 1000 to 3000 nM | > 60% | Cc1cccc(C)c1-c1cc2nc(n1)NS(=O)(=O)c1cccc(c1)C(=O)N(Cc1cnc3cc(C(C)(C)C(F)(F)F)n(C)c3n1)[C@H](COC(C)C)CO2 [IV-99]
> 60% | 1000 to 3000 nM |  | Cc1cccc(C)c1-c1cc2nc(n1)NS(=O)(=O)c1cccc(c1)C(=O)N(Cc1cnc3c(n1)CN(C(C)C)C3=O)[C@H](CC1(C)CC1)CO2 [III-18]
 | < 1000 nM | > 60% | Cc1cccc(CC(C)C)c1-c1nc2nc(c1C)OC[C@@H](C(C)C)N(Cc1cnc3cc(C(C)(C)C)n(C)c3n1)C(=O)c1cccc(c1)S(=O)(=O)N2 (atropisomer, axis not shown) [IV-79]
 | < 1000 nM | > 60% | COCCc1c(C(C)(C)C)n(C)c2nc(CN3C(=O)c4cccc(c4)S(=O)(=O)Nc4nc(cc(-c5c(C)cccc5C)n4)OC[C@H]3CC34CC(C3)C4)cnc12 [IV-82, (11R)-11-(1-bicyclo[1.1.1]pentanylmethyl)-12-[[6-tert-butyl-7-(2-methoxyethyl)-5-methyl-pyrrolo[2,3-b]pyrazin-3-yl]methyl]-6-(2,6-dimethylphenyl)-2,2-dioxo-9-oxa-2λ^6-thia-3,5,12,19-tetrazatricyclo[12.3.1.14,8]nonadeca-1(18),4(19),5,7,14,16-hexaen-13-one]
